Three molecules from US9352050B2, “Processes for preparing peptide conjugates and linkers” (PFIZER INC., priority 2011, dated 2016) can be followed below.

Type in all cases: physicochemical
Data set [1] is described as follows: Solubility and dissolution of peptide-linker conjugate and peptide in solvents and buffers. The text has this:
The process for the formation of the drug substance 5 was originally described in U.S. Pat. No. 8,288,349 whose contents are hereby incorporated. The original process involved use of propylene glycol as the cosolvent in the conjugation process between peptide-linker 3 and the antibody h38C2. […] The more amorphous solid form is usually more soluble in different solvents and buffer solutions. […] During preparation of bioconjugate 5, it is desirable to have a conjugation mixture as a homogeneous solution at the beginning of the reaction in order to afford consistent reaction kinetics and more robust manufacturing process.
In the original process, propylene glycol was used as a cosolvent primarily to assist in the dispersion of the hydrophobic peptide-linker 3b in the aqueous histidine buffer solution at pH 6.5.

Data set [2] in a line: Degradation of peptide 3b in the conjugation mixture. The settings on record: higher temperatures (30-35° C.) and higher pH (about pH7.5). The method, then: In order to investigate the impact of different conjugation reaction variables on the reaction rate, product quality and yield, a set of experiments were executed using design of experiments (DOE) approach. Three parameters were chosen for evaluation: pH of the conjugation mixture, temperature of the conjugation and the ratio of peptide to starting antibody. Other parameters such as composition of the buffer solution (20 mM histidine buffer), antibody concentration (16.7 mg/mL) and concentration of DMSO in solution (7%) were kept constant. The centre point for each parameter was pH6.5, 20° C. and a peptide:antibody ratio of 2.4:1. The low levels tested were pH5.5, 5° C. and a ratio of 1.8, and the high levels were pH7.5, 35° C. and a ratio of 3.
Several experiments whose variable values were at the center-point of all the parameter ranges were selected to provide information on possible non-linear effects. The protocol for these experiments was briefly as follows: Peptide 3b (25 mg) was placed in a 20 mL vial equipped with a magnetic stir bar. The solid was dissolved in DMSO (2.1 mL). Histidine buffer (20 mM, pH 6.5, 2.1 mL) was added to the solution. […] The reaction was monitored for completion by SEC and HIC chromatography methods. […] The in-situ yield of 5 and time of reaction completion (hours) were evaluated by HIC and SEC chromatographic methods. […]

Data set [3] in a line: Storage stability of activated esters of acid 6 at room temperature. The settings on record: solid, in contact with air. The text has this: This cyclic byproduct became the major constituent of the isolated solid after only a few days at RT. Since this side-reaction was envisioned to become even more problematic on scale due to the longer timelines for processing and isolation, a search for an alternative activating group for acid 6 was undertaken.

One may read the solubility as how much of the substance goes into solution per volume. A lower solubility goes with little dissolved substance. For `CSCC[C@H](NC(=O)[C@H](Cc1ccccc1)NC(=O)[C@H](CCC(N)=O)NC(=O)[C@H](CC(=O)O)NC(=O)[C@H](Cc1ccc(O)cc1)NC(=O)[C@H](CC(C)C)NC(=O)[C@@H](NC(=O)[C@H](CCCCNC(=O)COCC(=O)Nc1ccc(CCC(=O)N2CCC2=O)cc1)NC(=O)[C@H](CC(=O)O)NC(=O)[C@H](CCCCNC(C)=O)NC(=O)[C@H](CCC(=O)O)NC(=O)[C@H](CC(=O)O)NC(=O)[C@H](CC(C)C)NC(=O)[C@@H]1CCCN1C(=O)[C@H](CCC(N)=O)NC(=O)[C@H](Cc1ccc(O)cc1)NC(=O)[C@H](CCCCNC(C)=O)NC(=O)[C@H](CCC(N)=O)NC(C)=O)C(C)O)C(=O)N[C@@H](CC(C)C)C(=O)N[C@@H](CCC(N)=O)C(=O)N[C@@H](CCC(N)=O)C(=O)NCC(N)=O` (stereo partly drawn) [3b], in data set [1], the “Solubility in propylene glycol” value is “very low solubility” and the “Solubility in solvents other than DMSO” value is given as “limited solubility”. In data set [1] (Solubility in DMSO), the solubility is ≥ 100 mg/mL. For the same molecule, the “Degradation rate” value in data set [2] is recorded as “occurs at a faster rate”.
`CC(=O)NCCCC[C@H](N)C(=O)O` [compound 2]: the “solubility” value in data set [1] (MeCN or MeOH) was “low solubility”.
In the case of `O=C(COCC(=O)ON1C(=O)CCC1=O)Nc1ccc(CCC(=O)N2CCC2=O)cc1` [compound 8], in data set [3], the “Storage stability” value was “increasing amounts of the second component were noticed after the solid had been set aside for only a few hours”.
